Laboratory results reported in patent US10344330B2, “Glatiramer acetate response biomarker mRNA potency assay” (Mylan Inc., priority 2013, dated 2019).
“And” between values parts separate entries of the source, which are not always exact repeats. Equal values may be shown once.

Key:
secreted IL-2 = assay: Secreted IL-2 from treated LN cells (other experiments, data not shown); format: cell-based, mouse; settings: increasing concentrations
From the text: This dose-dependent response was consistent for both test and reference compounds independent of whether Copaxone® or Mylan GMA was used as the immunizing antigen.

[1] = tested on: mouse IL-13 mRNA in primary LN cells; assay: Mouse IL-13 mRNA in LN cells of Copaxone P53974-immunized CSJLF1/JRj mice stimulated with twelve GA lots (Example VIII); format: cell-based; settings: stimulation conc. 2.5 μg/mL; normalized to B-Actin
Protocol: (§1) A real-time polymerase chain reaction method was used to measure the expression of IL-2, IL-4, IL-5, and IL-13 mRNA in LN cells, from GA-immunized mice, following stimulation with one of twelve GA lots. One lot of GA (Copaxone P53974) was used for immunization. […] Twenty female CSJLF1/JRj mice (Janvier Labs), approximately 8-12 weeks of age, were immunized by injection of 0.1 mL injection volume into four footpads (about 10 μL into each of the front footpad, 40 μL into each of the hind footpad) on Day 0. […] Samples were prepared using TaqMan Universal PCR Master Mix II (Life Technologies) and run in 96-well plates using a Real-Time PCR system (7500, Life Technologies) using the following RT-PCR program: The levels of cytokine mRNA were calculated using a standard ΔΔCT method as described previously.

mIL-2 mRNA in LN cells = mIL-2 mRNA in LN cells of Copaxone P53974-immunized CSJLF1/JRj mice, three identical experiments, GAPDH and β-actin reference (Example VII); format: cell-based, mouse; settings: 2.5 μg/mL, 6 hours
Protocol: (§2) A real-time polymerase chain reaction method was used to measure the expression of IL-2, IL-4, IL-5, and IL-13 mRNA in GA-stimulated LN cells from GA-immunized mice. Three identical experiments were carried out. In each experiment, mice were immunized with GA, and LN cells from each group of mice were stimulated with each of six concentrations of the same batch of GA used for immunization. GAPDH and β-actin were used as reference genes.
(§3) Each of the three groups consisted of four female CSJLF1/JRj (Janvier Labs) mice, approximately 8-12 weeks of age. On Day 0, mice were immunized by injection of 0.1 mL injection volume into four footpads (about 10 μL into each of the front footpad, 40 μL into each of the hind footpad). The immunization contained a total dose of 250 μg of one lot of GA (Copaxone batch P53974)+CFA (0.5 mg/mL). On Day 10 post-immunization, lymph cells were isolated from animals and stimulated with enriched DCCM-1 (mock-stimulated vehicle control), 2.5 μg/mL Concanavalin A (ConA, a positive control) or GA.
(§4) Ten days following immunization, LN cell samples isolated from the immunized mice each were stimulated with 0.3, 1, 2.5, 5, 10, or 20 μg/mL of Copaxone batch P53974 as shown in Table 43.
(§5) Total RNA was isolated from stimulated LN cells after 6 hours of incubation at about 37° C. in a humidified CO2 incubator, using the SV 96 Total RNA Isolation System according to the manufacturer's protocol (Promega, Cat. #Z3500). cDNA was synthesized from each RNA sample in triplicate using High Capacity cDNA Reverse Transcription Kit (Life Technologies, formerly Applied Biosystems) according to the manufacturer's protocol.
(§6) Samples were prepared using TaqMan Universal PCR Master Mix II (Life Technologies) and run in 96-well plates using a Real-Time PCR system (7500, Life Technologies) using the following program for Real-Time PCR:
(§7) The levels of cytokine mRNA were calculated using a standard ΔΔCT method as described previously.

[2] = tested on: mouse CD25 (IL-2ra) mRNA in primary LN cells; assay: Mouse CD25 mRNA in LN cells of Copaxone P53974-immunized CSJLF1/JRj mice stimulated with GA lots (Example VIII); format: cell-based; settings: stimulation conc. 2.5 μg/mL, relative to DCCM1 medium control
Protocol: [The procedure below names another target; the source lists this target under the same test.] as §1

mIL-4 mRNA in LN cells = mIL-4 mRNA in LN cells of Copaxone P53974-immunized CSJLF1/JRj mice, three identical experiments (Example VII); format: cell-based, mouse; settings: 2.5 μg/mL, 6 hours
Protocol: as §2, §3, §4, §5, §6, §7

mIL-13 mRNA in LN cells = mIL-13 mRNA in LN cells of Copaxone P53974-immunized CSJLF1/JRj mice, three identical experiments (Example VII); format: cell-based, mouse; settings: 2.5 μg/mL, 6 hours
Protocol: as §2, §3, §4, §5, §6, §7

mIL-5 mRNA in LN cells = mIL-5 mRNA in LN cells of Copaxone P53974-immunized CSJLF1/JRj mice, three identical experiments (Example VII); format: cell-based, mouse; settings: 2.5 μg/mL, 6 hours
Protocol: as §2, §3, §4, §5, §6, §7

## L-glutamic acid polymer with L-alanine, L-lysine and L-tyrosine, acetate (salt) [GA]
Secreted IL-2
  secreted IL-2 from treated cells: increased in dose-dependent fashion

## Concanavalin A [ConA, reference compound]
[1]
  IL-13 mRNA/B-Actin Fold Change: 29.3 fold
mIL-2 mRNA in LN cells; Group 1
  IL-2 mRNA/Actβ Fold Change: 157.7 fold
  IL-2 mRNA/GAPDH Fold Change: 102.9 fold
mIL-2 mRNA in LN cells; Group 2
  IL-2 mRNA/Actβ Fold Change: 137.4 fold
  IL-2 mRNA/GAPDH Fold Change: 122.2 fold
mIL-2 mRNA in LN cells; Group 3
  IL-2 mRNA/Actβ Fold Change: 91.7 fold
  IL-2 mRNA/GAPDH Fold Change: 55.8 fold
[2]; normalized to B-Actin
  CD25 mRNA/B-Actin Fold Change: 4.1 and 5.6 and 4.7 and 5.2 and 5.0 and 5.1
[2]; normalized to GAPDH
  CD25 mRNA/GAPDH Fold Change: 3.6 and 4.4 and 4.5 and 5.6 and 4.8 and 4.6 and 4.7
mIL-4 mRNA in LN cells; Group 1
  IL-4 mRNA/Actβ Fold Change: 54.5 fold
  IL-4 mRNA/GAPDH Fold Change: 35.6 fold
mIL-4 mRNA in LN cells; Group 2
  IL-4 mRNA/Actβ Fold Change: 38.5 fold
  IL-4 mRNA/GAPDH Fold Change: 34.2 fold
mIL-4 mRNA in LN cells; Group 3
  IL-4 mRNA/Actβ Fold Change: 35.7 fold
  IL-4 mRNA/GAPDH Fold Change: 21.8 fold
mIL-13 mRNA in LN cells; Group 1
  IL-13 mRNA/Actβ Fold Change: 33.3 fold
  IL-13 mRNA/GAPDH Fold Change: 24.1 fold
mIL-13 mRNA in LN cells; Group 2
  IL-13 mRNA/Actβ Fold Change: 28.4 fold
  IL-13 mRNA/GAPDH Fold Change: 23.8 fold
mIL-13 mRNA in LN cells; Group 3
  IL-13 mRNA/Actβ Fold Change: 25.7 fold
  IL-13 mRNA/GAPDH Fold Change: 17.8 fold
mIL-5 mRNA in LN cells; Group 1
  IL-5 mRNA/Actβ Fold Change: 16.6 fold
  IL-5 mRNA/GAPDH Fold Change: 12.0 fold
mIL-5 mRNA in LN cells; Group 2
  IL-5 mRNA/Actβ Fold Change: 25.4 fold
  IL-5 mRNA/GAPDH Fold Change: 21.4 fold
mIL-5 mRNA in LN cells; Group 3
  IL-5 mRNA/Actβ Fold Change: 12.4 fold
  IL-5 mRNA/GAPDH Fold Change: 8.6 fold
